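Cells were grown in 96-well plates and exposed to each compound for 48 hours at five concentrations; endpoints were interpolated linearly between bracketing concentrations, or set to the highest concentration if not reached. TGI: concentration producing complete growth inhibition.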
Legend:
Experiment in all cases: NCI anticancer screen, dose series, 48 h
[1] = test system: 786-0 renal
[2] = test system: CAKI-1 renal
[3] = test system: EKVX NSCLC
[4] = test system: HOP-18 NSCLC
[5] = test system: M19-MEL melanoma
[6] = test system: RPMI-8226 leukemia
[7] = test system: SK-MEL-2 melanoma
[8] = test system: SK-MEL-28 melanoma
[9] = test system: SNB-19 CNS

SMILES | TGI [1] | TGI [2] | TGI [3] | TGI [4] | TGI [5] | TGI [6] | TGI [7] | TGI [8] | TGI [9]
CC(C)C1CC[C@@H](C)C[C@@]1(O)CC(N)=O (stereo partly specified) | > 100 µM | > 100 µM | > 100 µM | > 100 µM | > 100 µM | > 100 µM | > 100 µM | > 100 µM | > 100 µM
Cc1ccc(S(=O)(=O)OC2CSS(=O)CC2OS(=O)(=O)c2ccc(C)cc2)cc1 (stereo unspecified) | 30.5 µM | 25.7 µM | 35.7 µM | 37.6 µM | 30.5 µM | 27.6 µM | – | 29 µM | 32 µM
Oc1c(C(Nc2cccc3cccnc23)c2ccccc2)ccc2cccnc12 (stereo unspecified) | > 100 µM | > 100 µM | > 100 µM | 93.2 µM | > 100 µM | > 100 µM | – | – | > 100 µM
COC(=O)/C(C)=C(/CCC1(C)OCCO1)O[Si](C)(C)C | > 100 µM | > 100 µM | > 100 µM | > 100 µM | > 100 µM | > 100 µM | > 100 µM | – | > 100 µM
CCOc1ccccc1N1C(=O)C(=O)C(c2nc3ccccc3o2)C(=O)C1=O | 65 µM | > 100 µM | > 100 µM | > 100 µM | > 100 µM | > 100 µM | > 100 µM | > 100 µM | > 100 µM
Cc1cc(=O)n(-c2ccccc2C)c(C)n1 | > 100 µM | > 100 µM | > 100 µM | > 100 µM | > 100 µM | – | > 100 µM | > 100 µM | > 100 µM
CCCCOC(=O)C1C2CCC(O2)C1C(=O)OCCCC (stereo unspecified) | > 60.9 µM | > 100 µM | > 100 µM | > 100 µM | > 100 µM | > 68.5 µM | > 100 µM | > 100 µM | > 100 µM
CCS(CC)(CC)CC1CCCC2=CCC(P(=O)(c3ccccc3)c3ccccc3)CC21 (stereo unspecified) | 26.1 µM | 24.4 µM | 28.4 µM | 40.3 µM | 36.5 µM | – | 33.8 µM | 28.4 µM | 29 µM
CCOc1ccc2c(c1)[n+]([O-])c(-c1ccc(Cl)cc1)c(N)[n+]2[O-] | > 100 µM | > 100 µM | > 100 µM | > 100 µM | – | > 100 µM | > 100 µM | > 100 µM | > 100 µM
COc1ccc(Br)c(N/N=C2\CCCNC2=O)c1 | > 100 µM | 91.8 µM | 78.6 µM | > 100 µM | > 100 µM | > 100 µM | > 100 µM | > 100 µM | > 100 µM
O=[N+]([O-])c1cc(C(F)(F)F)cc([N+](=O)[O-])c1CCl | 8.21 µM | 7.37 µM | 13.4 µM | 3.6 µM | 3.64 µM | 3.49 µM | > 26.7 µM | 17.9 µM | 19.9 µM
Oc1ccccc1/C=C/c1csnn1 | > 31.6 µM | > 100 µM | > 100 µM | > 100 µM | > 100 µM | > 100 µM | > 100 µM | > 100 µM | > 100 µM
